These results are taken from PMC11181081 (Proceedings of the National Academy of Sciences of the …, 2024).

The test system of assay [1] is ER-regulated genes PGR, GREB1, TFF1/pS2. In words: qPCR of ER target genes in MCF-7 cells. It is filed as cell-based. The following applies: MCF-7 in normal FBS-containing media, ~1 pM E2. Background: In qPCR the cycle at which signal appears reflects the starting amount.
Assay [2] has as its system primary female mouse myotubes. Nature of the assay: Primary myotube size by high-content imaging. In kind it is cell-based. The note with it: 50 pM, 5 d.
Another assay concerns Greb1 expression. Nature of the assay: Greb1 qPCR in primary myotubes. It is filed as cell-based, mouse. The note with it: steroid-free conditions, 24 h.
The subject of another assay is MCF-7 WT cells. Nature of the assay: Cell proliferation assay, MCF-7 WT. The following applies: MCF-7 with ER-WT, charcoal-stripped FBS, 5 d.

In the case of `C[C@]12CC[C@@H]3c4ccc(O)cc4CC[C@H]3[C@@H]1CC[C@@H]2O` [Compound E2, 17β-estradiol], the “Gene expression profile in full media (in words)” value in assay [1] is given as “less induction of gene expression”. Also, in assay [2], the “Myotube diameter / tube area (in words)” value is on record as “maintained primary myotube diameter”. Moreover, the “Greb1 expression dose response (in words)” value in the assay on Greb1 expression was “biphasic with an inflection point below the ligand Kd”. Moreover, the “Effect on proliferation (activity profile, in words)” value with MCF-7 WT cells is listed as “induced cell growth at doses 2 logs below the Kd”.
